Legend:
ECTV-Moscow strain = test: organism not typed; type: cell-based, Ectromelia
[1] = tested on: Vaccinia virus (Copenhagen); test: microbe, parasite or virus in culture; type: cell-based; conditions: Orthopoxvirus vaccinia, HFF, read-out: Vaccinia EC50
cowpox virus (Brighton) = test: organism not typed; type: cell-based; conditions: HFF, read-out: EC50 in cells infected with cowpox or vaccinia virus

## CCCCCCCCCCCCCCCCCCOC[C@@H](COP(=O)(O)CO[C@H](CO)Cn1ccc(N)nc1=O)OCc1ccccc1 [ODBG-CDV, 1-O-octadecyl-2-O-benzyl-sn-glyceryl-3-cidofovir]
s9, 1.5 h
  % compound remaining, Human S9: 91-92%

## CCCCCCCCCCCCCCCCOCCCOP(=O)(O)CO[C@H](CO)Cn1cnc2c(N)ncnc21 [HDP-(S)-HPMPA, hexadecyloxypropyl-(S)-HPMPA]
other
  % intact compound, human liver S9: 92-93%

## C=CCCCCCCCCCCCCCCOCCOP(=O)(O)CO[C@H](CO)Cn1cnc2c(N)ncnc21 [HDNE-(S)-HPMPA, ω-hexadecenyloxyethyl-(S)-HPMPA]
ECTV-Moscow strain
  Ectromelia S.I. (selective index): 7
ECTV-Moscow strain; BSC-1, read-out: antiviral activity (EC50), virus not specified
  EC50: 300 to 740 nM

## CCCCCCCCCCCCCCCCOCCCOP(=O)(O)CO[C@H](CO)Cn1ccc(N)nc1=O [HDP-CDV, hexadecyloxypropyl-cidofovir]
[1]
  EC50: 80 ± 30 nM

## CC(C)CCCCCCCCCCCOCCCOP(=O)(O)CO[C@H](CO)Cn1ccc(N)nc1=O [Compound 12M-TRDP-CDV, 12-methyl-tridecyloxypropyl-cidofovir]
Cowpox virus (Brighton)
  EC50: 800 to 1000 nM

Source: article PMC3104040 (Bioorganic & medicinal chemistry, 2011)
